“Also recorded” adds a separate entry of the source.
Legend:
[1] = Tasting in soy sauce; settings: 0.5 ppm in pure salt reduced kikoman soy sauce (9% salt)
Experimental: (§1) The following formulations were prepared and tasted by trained panelists.
(§2) Salt level pure product between 5-40%
(§3) Salt level in application 0.3-1.0%
(§4) Samples were prepared and evaluated by expert tasters. Tasters were asked to describe the samples focusing on authentic taste, mouthfeel, fullness, salty-ness, salivation, umami, sweetness, juiciness, richness, long lastingness and fattiness.
Test on Kikkoman Soy Sauce Low Salt
Base is Kikkoman soy sauce
(§5) Samples were prepared and evaluated by expert tasters. Tasters were asked to describe the samples focusing on authentic taste, mouthfeel, fullness, salivation, salty-ness, umami, sweetness, juiciness, richness, long lastingness and fattiness.

[2] = Tasting in fish sauce; settings: 0.5 ppm in pure fish sauce (27% salt)
Experimental: as §1, §2, §3, §5

[3] = Tasting in low fat mayonnaise; settings: 0.5 ppm in low fat mayonnaise (27% fat)
Experimental: as §1
Low fat Mayonnaise (27% Fat, 9% carbohydrates (of which 5% sugar), 1.4% salt)
as §4
Calve 60% Reduced Fat Mayonnaise
Base is Calve Mayonnaise 60% reduced fat (market Product)
as §5
Low fat Mayonnaise (27% Fat)

[4] = Tasting in low fat salad dressing; settings: 0.5 ppm in low fat salad dressing (13.6% fat)
Experimental: as §1
low fat salad dressing (13.6% Fat, 8%, carbohydrates (of which 5.3% sugar))
as §4
Calve Salad Dressing Low Fat (13.6% Fat):
Base is Calve salad dressing (market product)
as §5
Low fat salad dressing (13.6% Fat)

[5] = Tasting in chicken bouillon; settings: 0.7% salt, 0.5% fat
Experimental: as §1
Standard Chicken bouillon base, 0.7% salt, 0.5% fat
as §5
Test in Soups and Bouillons
Standard Chicken Bouillon Base

[6] = Tasting in beef jus; settings: 40 PPB in beef jus
Experimental: as §1, §5

[7] = Tasting in spreadable cheese; settings: 0.5 PPM in spreadable cheese (Eru)
Experimental: as §1, §4
Test on “Eru Prestige” Spreadable Cheese
Base is Eru prestige (market product)
as §5

[8] = Tasting in cheese sauce; settings: 0.5 PPM in cheese sauce 5% fat 1.6% salt
Experimental: as §1
Cheese sauce: 5% fat 1.6% salt
as §5
Cheese Sauce: 5% Fat 1.6% Salt

[9] = Tasting on fried potato snack product; settings: 35% fat, cheese seasoning
Experimental: as §1
A snack product consisting of a fried potato base, containing 35% fat and flavored with cheese seasoning containing salt, MSG, dairy, organic acids, sugars, and a flavour formulation. The following compounds were added to the snack product at the indicated levels and the tasting results are reported: […]

[10] = Tasting on air expanded base; settings: 3% fat, cheese seasoning
Experimental: as §1
An air expanded base (Rice, wheat, Tapioca, potato, salt, sugar, modified starch), containing 3% fat and flavored with cheese seasoning containing salt, MSG, dairy, organic acids, sugars and flavor. The following compounds were added to the base at the indicated levels and the tasting results are reported: […]

[11] = Tasting in strawberry flavoured sugar sweetened yoghurt; settings: 2 ppm, 1.5% fat yoghurt, 8% sucrose, strawberry flavour 0.015%
Experimental: Strawberry Flavoured Sugar Sweetened Yoghurt
In a 1.5% fat yoghurt base, sweetened with 8% sucrose by weight, flavoured with a proprietary strawberry flavour @ 0.015% several different N-acyl aminoacids were added.
as §4
Test in a Strawberry Yoghurt
Base: Yoghurt 1.5% fat yoghurt, 8% sucrose, proprietary strawberry flavour @ 0.015%
(§6) Samples were evaluated by expert tasters. Tasters were asked to describe the samples focusing on authentic taste, mouthfeel, fullness, salivation, salty-ness, umami, sweetness, juiciness, richness, long lastingness and fattiness.

[12] = Tasting in strawberry drink; settings: 0.5 ppm; 7% sucrose, 0.1% citric acid, strawberry flavour 0.015%
Experimental: as §4
Comparison in a Strawberry Drink
Base is 7% sucrose, 0.1% citric acid, and a proprietary strawberry flavour @ 0.015%
(§7) Samples were evaluated by expert tasters. Tasters were asked to describe the samples focusing on authentic taste, mouthfeel, fullness, salty-ness, salivation, umami, sweetness, juiciness, richness, long lastingness and fattiness.
Base is water, 7% sucrose, 0.1% citric acid, proprietary strawberry flavour @ 0.015%
as §6
Test in a Strawberry Drink
Base is 7% sucrose, 0.1% citric acid, proprietary strawberry flavour @ 0.015%

[13] = Tasting in vanilla milk 0.15% fat; settings: 1 ppm, 4% sucrose, Vaniline 10 ppm + vanilla extract 0.03%
Experimental: as §4
Base: Milk 0.15% fat, sweetened with 4% sucrose by weight, flavoured with proprietary
Vaniline flavour @ 10 ppm+Vanilla ext. @ 0.03%
as §7
Comparison in a Vanilla Milk Drink
Vaniline @ 10 ppm+Vanilla extract @ 0.03%
Base: Milk 0.15% fat, sweetened with 4% sucrose by weight, flavoured with proprietary Vaniline @ 10 ppm+Vanilla extract @ 0.03%

[14] = Test in pear flavoured drink; settings: 1 ppm; water, 7% sugar (8% elsewhere in the source), 0.1% citric acid, pear flavour 0.025%
Experimental: as §4
Test in Pear Flavoured Drink:
Base: water, 7% sugar, 0.1% citric acid, proprietary pear flavour at 0.025%
as §7
Comparison in a Pear Drink
Base is water, 8% sugar, 0.1% citric acid, proprietary pear flavour at 0.025%

[15] = Test in pineapple flavoured drink; settings: 1 ppm; water, 8% sugar, 0.1% citric acid, pineapple flavour 0.03%
Experimental: as §4
Test in Pineapple Flavoured Drink:
Base is water, 8% sugar, 0.1% citric acid and proprietary pineapple flavour at 0.03%
as §7

Compound	tasting result [1]	tasting result [2]	tasting result [3]	tasting result [4]	tasting result ([5]; 0.2 PPM in chicken bouillon base)	tasting result ([5]; 0.5 PPM in chicken bouillon base)	tasting result [6]	tasting result [7]	tasting result [8]	tasting result ([9]; 0.5 ppm on fried potato snack)	tasting result ([9]; 1 ppm on fried potato snack)	tasting result ([10]; 0.5 ppm on air expanded base)	tasting result ([10]; 1 ppm on air expanded base)	tasting result [11]	tasting result [12]	tasting result [13]	tasting result [14]	tasting result [15]
CCCCCCCC/C=C\CCCCCCCC(=O)NC1(C(=O)O)CC1 [C18:1-ACCA, N-oleoyl 1-amino-cyclopropyl carboxylic acid]	strong upfront saltiness lingering, very strong saltiness	strong saltiness lingering and with a strong body and mouthfeel	nicely balanced compositions with a full mouthfeel and a more eggy taste; also recorded: Nice balanced, full mouthfeel, increased eggyness	more mouthfeel with body and less acidic; also recorded: Increased mouthfeel body less acidic	Saltier, Stronger and more umami	More body and fatty notes, salivating and good aftertaste	more salty, fatty, total profile is enhanced	Strong umami, lingering cheese bite	Strong umami, cheese bite, expanding	Increased salty	Increased Umami, salty	Increased salty	Increased Umami, salty					
CCCCC/C=C\C/C=C\CCCCCCCC(=O)N[C@@H](CC(N)=O)C(=O)O [C18:2-asn, N-linoleoyl-Asn]														green fresh, nice, fatty nice fuller	fuller, sweeter, jammy aftertaste, long lasting	sweeter more fatty round	very ripe, authentic pear, very juicy, long lasting	very ripe, jammy, long lasting, authentic

— patent US11091429B2, “Organic compounds” (Givaudan SA, priority 2012, dated 2021)
